ChEMBL document CHEMBL4507322, “Data for DCP probe (R)-ZINC-3573” (2021)

Columns and labels:
[1] = biological target: Alpha-2C adrenergic receptor (Homo sapiens) (UniProt P18825); conditions: Compound concentration 10.0 uM
[2] = biological target: Sigma non-opioid intracellular receptor 1 (Homo sapiens) (UniProt Q99720); conditions: Compound concentration 10.0 uM
[3] = biological target: Muscarinic acetylcholine receptor M4 (Homo sapiens) (UniProt P08173); conditions: Compound concentration 10.0 uM
[4] = biological target: Muscarinic acetylcholine receptor M5 (Homo sapiens) (UniProt P08912); conditions: Compound concentration 10.0 uM
[5] = biological target: Muscarinic acetylcholine receptor M3 (Homo sapiens) (UniProt P20309); conditions: Compound concentration 10.0 uM
[6] = biological target: 5-hydroxytryptamine receptor 3A (Homo sapiens) (UniProt P46098); conditions: Compound concentration 10.0 uM
[7] = biological target: Histamine H3 receptor (Homo sapiens) (UniProt Q9Y5N1); conditions: Compound concentration 10.0 uM
[8] = biological target: D(4) dopamine receptor (Homo sapiens) (UniProt P21917); conditions: Compound concentration 10.0 uM
[9] = biological target: T1, 5-hydroxytryptamine receptor 1D (Homo sapiens, UniProt P28221); experiment: GPCRScan assay: inhibition of 5-HT1D; set-up: radioligand conc. used [nm] 1.0 – 2.0, parental cells HEKT
[10] = biological target: Alpha-2A adrenergic receptor (Homo sapiens) (UniProt P08913); conditions: Compound concentration 10.0 uM
[11] = biological target: Muscarinic acetylcholine receptor M2 (Homo sapiens) (UniProt P08172); conditions: Compound concentration 10.0 uM
[12] = biological target: T2, GABA-A receptor; anion channel (Rattus norvegicus) (UniProt O09028+P15431+P18506+P18508+P19969+P20236+P23574+P23576+P28471+P28473+P30191+P62813+P63079+P63138+Q91ZM7+Q9ES14); conditions: Compound concentration 10.0 uM
[13] = biological target: 5-hydroxytryptamine receptor 2C (Homo sapiens) (UniProt P28335); conditions: Compound concentration 10.0 uM
[14] = biological target: 5-hydroxytryptamine receptor 7 (Homo sapiens) (UniProt P34969); conditions: Compound concentration 10.0 uM
[15] = biological target: T3, Sodium-dependent dopamine transporter (Homo sapiens, UniProt Q01959); experiment: GPCRScan assay: inhibition of DAT; set-up: radioligand conc. used [nm] 3.6 – 16.0, parental cells stable HEK
[16] = biological target: T4, 5-hydroxytryptamine receptor 1B (Homo sapiens, UniProt P28222); experiment: GPCRScan assay: inhibition of 5-HT1B; set-up: radioligand conc. used [nm] 0.6 – 1.5, parental cells stable HEK
[17] = biological target: T5, Sigma intracellular receptor 2 (Homo sapiens, UniProt Q5BJF2); conditions: Compound concentration 10.0 uM
[18] = biological target: 5-hydroxytryptamine receptor 1A (Homo sapiens) (UniProt P08908); conditions: Compound concentration 10.0 uM
[19] = biological target: Sodium-dependent noradrenaline transporter (Homo sapiens) (UniProt P23975); conditions: Compound concentration 10.0 uM
[20] = biological target: T6, 5-hydroxytryptamine receptor 6 (Homo sapiens, UniProt P50406); experiment: GPCRScan assay: inhibition of 5-HT6; set-up: radioligand conc. used [nm] 2.0 – 4.0, parental cells stable HEK
[21] = biological target: Beta-3 adrenergic receptor (Homo sapiens) (UniProt P13945); conditions: Compound concentration 10.0 uM
[22] = biological target: Delta-type opioid receptor (Homo sapiens) (UniProt P41143); conditions: Compound concentration 10.0 uM
[23] = biological target: 5-hydroxytryptamine receptor 5A (Homo sapiens) (UniProt P47898); conditions: Compound concentration 10.0 uM
[24] = biological target: Histamine H1 receptor (Homo sapiens) (UniProt P35367); conditions: Compound concentration 10.0 uM
[25] = biological target: Muscarinic acetylcholine receptor M1 (Homo sapiens) (UniProt P11229); conditions: Compound concentration 10.0 uM
[26] = biological target: Alpha-1D adrenergic receptor (Homo sapiens) (UniProt P25100); conditions: Compound concentration 10.0 uM
[27] = biological target: T5, Sigma intracellular receptor 2; experiment: GPCRScan assay: inhibition of Sigma 2; set-up: radioligand conc. used [nm] 5.0, parental cells HEKT
[28] = biological target: T7, D(2) dopamine receptor (Homo sapiens, UniProt P14416); conditions: Compound concentration 10.0 uM
[29] = biological target: Histamine H2 receptor (Homo sapiens) (UniProt P25021); conditions: Compound concentration 10.0 uM
[30] = biological target: 5-hydroxytryptamine receptor 2B (Homo sapiens) (UniProt P41595); conditions: Compound concentration 10.0 uM
[31] = biological target: T6, 5-hydroxytryptamine receptor 6; conditions: Compound concentration 10.0 uM
[32] = biological target: T1, 5-hydroxytryptamine receptor 1D; conditions: Compound concentration 10.0 uM
[33] = biological target: 5-hydroxytryptamine receptor 1E (Homo sapiens) (UniProt P28566); conditions: Compound concentration 10.0 uM
[34] = biological target: Alpha-1A adrenergic receptor (Homo sapiens) (UniProt P35348); conditions: Compound concentration 10.0 uM
[35] = biological target: Histamine H4 receptor (Homo sapiens) (UniProt Q9H3N8); conditions: Compound concentration 10.0 uM
[36] = biological target: Sodium-dependent serotonin transporter (Homo sapiens) (UniProt P31645); conditions: Compound concentration 10.0 uM
[37] = biological target: D(3) dopamine receptor (Homo sapiens) (UniProt P35462); conditions: Compound concentration 10.0 uM
[38] = biological target: Kappa-type opioid receptor (Homo sapiens) (UniProt P41145); conditions: Compound concentration 10.0 uM
[39] = biological target: T8, 5-hydroxytryptamine receptor 3A (Homo sapiens, UniProt P46098); experiment: GPCRScan assay: inhibition of 5-HT3; set-up: radioligand conc. used [nm] 1.0 – 2.0, parental cells HEKT
T8 sequence (P46098 whole entry): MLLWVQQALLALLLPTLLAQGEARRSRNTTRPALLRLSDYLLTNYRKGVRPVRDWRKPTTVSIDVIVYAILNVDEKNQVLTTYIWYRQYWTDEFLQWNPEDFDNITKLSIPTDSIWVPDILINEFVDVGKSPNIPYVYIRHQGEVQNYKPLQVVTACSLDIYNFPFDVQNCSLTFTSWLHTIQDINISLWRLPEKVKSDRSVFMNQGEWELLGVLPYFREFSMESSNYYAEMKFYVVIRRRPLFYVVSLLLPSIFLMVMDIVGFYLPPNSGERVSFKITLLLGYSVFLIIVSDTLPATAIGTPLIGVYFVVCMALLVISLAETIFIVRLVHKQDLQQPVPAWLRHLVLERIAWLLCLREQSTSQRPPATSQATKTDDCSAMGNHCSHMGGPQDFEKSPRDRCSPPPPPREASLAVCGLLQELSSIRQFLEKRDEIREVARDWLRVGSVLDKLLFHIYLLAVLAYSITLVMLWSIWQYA

[40] = biological target: Alpha-1B adrenergic receptor (Homo sapiens) (UniProt P35368); conditions: Compound concentration 10.0 uM
[41] = biological target: D(1B) dopamine receptor (Homo sapiens) (UniProt P21918); conditions: Compound concentration 10.0 uM
[42] = biological target: Alpha-2B adrenergic receptor (Homo sapiens) (UniProt P18089); conditions: Compound concentration 10.0 uM
[43] = biological target: T4, 5-hydroxytryptamine receptor 1B; conditions: Compound concentration 10.0 uM
[44] = biological target: T7, D(2) dopamine receptor; experiment: GPCRScan assay: inhibition of D2; set-up: radioligand conc. used [nm] 0.4 – 1.0, parental cells stable fibroblast
[45] = biological target: GABA-A receptor; anion channel; experiment: GPCRScan assay: inhibition of GABAA/BZP; type: protein-complex assay, Rattus norvegicus; set-up: radioligand conc. used [nm] 0.6 – 4.0, parental cells brain tissue
[46] = biological target: T3, Sodium-dependent dopamine transporter; conditions: Compound concentration 10.0 uM
[47] = biological target: D(1A) dopamine receptor (Homo sapiens) (UniProt P21728); conditions: Compound concentration 10.0 uM
[48] = biological target: 5-hydroxytryptamine receptor 2A (Homo sapiens) (UniProt P28223); conditions: Compound concentration 10.0 uM
[49] = biological target: Beta-2 adrenergic receptor (Homo sapiens) (UniProt P07550); conditions: Compound concentration 10.0 uM
[50] = biological target: T2, GABA-A receptor; anion channel (Rattus norvegicus); conditions: Compound concentration 10.0 uM; remark: listed apart in the source
[51] = organism: Rattus norvegicus; conditions: Compound concentration 10.0 uM
[52] = biological target: 5-hydroxytryptamine receptor 1A (Homo sapiens, UniProt P08908); experiment: GPCRScan assay: inhibition of 5-HT1A; set-up: radioligand conc. used [nm] 0.5 – 1.0, parental cells stable CHO
[53] = biological target: Mu-type opioid receptor (Homo sapiens) (UniProt P35372); conditions: Compound concentration 10.0 uM
[54] = biological target: Beta-1 adrenergic receptor (Homo sapiens) (UniProt P08588); conditions: Compound concentration 10.0 uM
[55] = biological target: T9, Mas-related G-protein coupled receptor member X2 (Homo sapiens, UniProt Q96LB1); experiment: PRESTO-Tango concentration response assay
[56] = biological target: T9, Mas-related G-protein coupled receptor member X2; experiment: FLIPR assay
[57] = biological target: Alpha-1B adrenergic receptor (Homo sapiens, UniProt P35368); experiment: GPCRScan assay: inhibition of Alpha1B; set-up: radioligand conc. used [nm] 0.3 – 1.0, parental cells stable HEK

T7 sequence (P14416 whole entry): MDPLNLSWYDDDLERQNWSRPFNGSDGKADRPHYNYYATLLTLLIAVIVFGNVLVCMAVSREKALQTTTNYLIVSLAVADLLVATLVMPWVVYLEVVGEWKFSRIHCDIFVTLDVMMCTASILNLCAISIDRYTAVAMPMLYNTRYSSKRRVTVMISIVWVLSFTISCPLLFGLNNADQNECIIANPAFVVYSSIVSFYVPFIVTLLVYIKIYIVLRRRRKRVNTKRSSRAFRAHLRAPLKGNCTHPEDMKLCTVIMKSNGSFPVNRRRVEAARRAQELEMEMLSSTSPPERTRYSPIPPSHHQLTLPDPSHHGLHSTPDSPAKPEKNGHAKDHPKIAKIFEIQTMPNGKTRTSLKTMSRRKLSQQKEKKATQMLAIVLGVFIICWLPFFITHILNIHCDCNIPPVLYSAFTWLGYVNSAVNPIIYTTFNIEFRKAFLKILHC
T1 sequence (P28221 whole entry): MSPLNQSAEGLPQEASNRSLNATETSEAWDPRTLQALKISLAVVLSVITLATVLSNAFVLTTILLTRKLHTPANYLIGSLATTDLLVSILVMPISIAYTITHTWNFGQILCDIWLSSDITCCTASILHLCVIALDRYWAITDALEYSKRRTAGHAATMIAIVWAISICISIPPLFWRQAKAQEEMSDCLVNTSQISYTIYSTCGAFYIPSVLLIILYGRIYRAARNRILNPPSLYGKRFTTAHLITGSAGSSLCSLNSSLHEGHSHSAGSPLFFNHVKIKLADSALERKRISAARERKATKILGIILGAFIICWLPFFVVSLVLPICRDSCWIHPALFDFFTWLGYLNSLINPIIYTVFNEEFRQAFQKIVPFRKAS
T6 sequence (P50406 whole entry): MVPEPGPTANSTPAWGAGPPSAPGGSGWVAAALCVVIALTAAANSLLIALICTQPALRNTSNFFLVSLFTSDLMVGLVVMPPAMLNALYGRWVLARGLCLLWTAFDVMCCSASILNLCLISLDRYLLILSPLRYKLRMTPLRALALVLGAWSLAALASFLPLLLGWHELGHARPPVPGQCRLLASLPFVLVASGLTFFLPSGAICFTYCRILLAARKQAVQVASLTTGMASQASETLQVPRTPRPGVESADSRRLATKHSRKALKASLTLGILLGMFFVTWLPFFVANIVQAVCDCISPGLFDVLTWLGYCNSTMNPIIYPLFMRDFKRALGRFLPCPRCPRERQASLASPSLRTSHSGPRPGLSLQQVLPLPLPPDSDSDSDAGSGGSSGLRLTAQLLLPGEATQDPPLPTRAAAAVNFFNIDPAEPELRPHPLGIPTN
T4 sequence (P28222 whole entry): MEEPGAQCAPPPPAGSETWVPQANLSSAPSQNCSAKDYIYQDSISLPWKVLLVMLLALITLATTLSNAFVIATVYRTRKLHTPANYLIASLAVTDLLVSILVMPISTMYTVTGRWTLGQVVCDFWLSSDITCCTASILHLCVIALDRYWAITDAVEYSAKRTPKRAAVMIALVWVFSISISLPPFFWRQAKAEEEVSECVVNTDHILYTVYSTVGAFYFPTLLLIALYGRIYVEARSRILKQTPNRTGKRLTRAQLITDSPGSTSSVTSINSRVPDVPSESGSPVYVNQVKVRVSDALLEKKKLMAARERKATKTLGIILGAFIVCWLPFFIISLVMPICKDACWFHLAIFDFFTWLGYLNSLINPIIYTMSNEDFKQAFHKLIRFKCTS
T5 sequence (Q5BJF2 whole entry): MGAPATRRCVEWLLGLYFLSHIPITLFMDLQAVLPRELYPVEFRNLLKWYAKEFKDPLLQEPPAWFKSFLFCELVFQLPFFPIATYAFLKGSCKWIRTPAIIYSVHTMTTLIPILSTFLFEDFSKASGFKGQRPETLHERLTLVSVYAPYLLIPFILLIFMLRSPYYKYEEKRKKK
T3 sequence (Q01959 whole entry): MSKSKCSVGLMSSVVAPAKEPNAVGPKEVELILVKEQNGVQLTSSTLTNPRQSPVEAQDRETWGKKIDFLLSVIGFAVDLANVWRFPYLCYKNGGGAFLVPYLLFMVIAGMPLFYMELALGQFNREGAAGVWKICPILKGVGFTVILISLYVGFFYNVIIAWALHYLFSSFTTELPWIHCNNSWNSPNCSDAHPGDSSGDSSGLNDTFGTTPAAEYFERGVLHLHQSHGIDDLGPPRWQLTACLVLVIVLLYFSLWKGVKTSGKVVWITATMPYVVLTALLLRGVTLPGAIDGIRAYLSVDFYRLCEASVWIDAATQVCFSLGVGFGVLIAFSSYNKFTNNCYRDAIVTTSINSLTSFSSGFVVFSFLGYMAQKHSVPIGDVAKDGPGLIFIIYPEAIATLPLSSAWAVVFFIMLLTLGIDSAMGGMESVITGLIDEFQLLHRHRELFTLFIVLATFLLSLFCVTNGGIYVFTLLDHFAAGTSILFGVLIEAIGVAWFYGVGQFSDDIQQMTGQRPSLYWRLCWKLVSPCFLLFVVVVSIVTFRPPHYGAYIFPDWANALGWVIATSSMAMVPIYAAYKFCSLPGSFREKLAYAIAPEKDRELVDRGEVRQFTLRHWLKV
Chain of 5-hydroxytryptamine receptor 1A (Homo sapiens) (P08908 whole entry): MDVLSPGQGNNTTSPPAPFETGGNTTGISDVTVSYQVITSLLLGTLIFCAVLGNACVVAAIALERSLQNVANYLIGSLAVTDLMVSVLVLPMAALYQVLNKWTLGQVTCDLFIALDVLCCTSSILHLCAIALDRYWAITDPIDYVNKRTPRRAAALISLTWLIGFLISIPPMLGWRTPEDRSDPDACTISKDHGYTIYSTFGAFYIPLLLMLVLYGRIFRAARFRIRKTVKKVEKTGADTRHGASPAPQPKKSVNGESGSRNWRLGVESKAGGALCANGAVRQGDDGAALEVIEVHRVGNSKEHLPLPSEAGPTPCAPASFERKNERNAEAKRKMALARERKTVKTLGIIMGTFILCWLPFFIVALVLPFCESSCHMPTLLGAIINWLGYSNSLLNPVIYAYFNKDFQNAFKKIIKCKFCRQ
Chain of Alpha-1D adrenergic receptor (Homo sapiens) (P25100 whole entry): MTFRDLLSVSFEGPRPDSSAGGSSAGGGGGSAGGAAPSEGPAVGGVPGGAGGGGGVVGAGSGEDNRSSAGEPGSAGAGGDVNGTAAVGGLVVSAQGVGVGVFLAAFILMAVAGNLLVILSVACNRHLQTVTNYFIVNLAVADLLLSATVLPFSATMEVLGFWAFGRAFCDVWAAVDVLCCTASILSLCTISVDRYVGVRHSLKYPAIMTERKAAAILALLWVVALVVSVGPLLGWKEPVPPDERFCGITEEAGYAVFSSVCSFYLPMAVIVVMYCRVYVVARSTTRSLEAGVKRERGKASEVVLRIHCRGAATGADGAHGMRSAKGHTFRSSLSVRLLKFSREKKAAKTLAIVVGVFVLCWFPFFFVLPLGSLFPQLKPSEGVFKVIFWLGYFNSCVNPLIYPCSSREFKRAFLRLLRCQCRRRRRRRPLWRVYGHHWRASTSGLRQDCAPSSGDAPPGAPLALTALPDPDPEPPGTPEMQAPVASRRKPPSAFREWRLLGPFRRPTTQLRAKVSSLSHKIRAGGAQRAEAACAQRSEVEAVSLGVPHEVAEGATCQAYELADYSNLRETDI
Chain of Muscarinic acetylcholine receptor M4 (Homo sapiens) (P08173 whole entry): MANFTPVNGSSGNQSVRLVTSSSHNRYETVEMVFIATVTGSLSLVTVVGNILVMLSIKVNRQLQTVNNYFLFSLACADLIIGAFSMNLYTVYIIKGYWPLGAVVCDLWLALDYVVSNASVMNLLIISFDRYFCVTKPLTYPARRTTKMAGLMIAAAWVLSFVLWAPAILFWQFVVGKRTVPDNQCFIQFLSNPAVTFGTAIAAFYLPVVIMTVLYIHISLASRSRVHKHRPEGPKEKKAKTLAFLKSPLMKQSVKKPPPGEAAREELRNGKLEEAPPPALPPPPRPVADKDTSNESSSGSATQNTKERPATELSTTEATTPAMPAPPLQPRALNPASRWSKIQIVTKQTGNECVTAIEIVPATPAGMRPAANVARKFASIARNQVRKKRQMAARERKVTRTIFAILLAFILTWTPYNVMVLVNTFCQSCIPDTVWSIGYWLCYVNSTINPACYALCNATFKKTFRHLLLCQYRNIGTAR
Chain of 5-hydroxytryptamine receptor 2A (Homo sapiens) (P28223 whole entry): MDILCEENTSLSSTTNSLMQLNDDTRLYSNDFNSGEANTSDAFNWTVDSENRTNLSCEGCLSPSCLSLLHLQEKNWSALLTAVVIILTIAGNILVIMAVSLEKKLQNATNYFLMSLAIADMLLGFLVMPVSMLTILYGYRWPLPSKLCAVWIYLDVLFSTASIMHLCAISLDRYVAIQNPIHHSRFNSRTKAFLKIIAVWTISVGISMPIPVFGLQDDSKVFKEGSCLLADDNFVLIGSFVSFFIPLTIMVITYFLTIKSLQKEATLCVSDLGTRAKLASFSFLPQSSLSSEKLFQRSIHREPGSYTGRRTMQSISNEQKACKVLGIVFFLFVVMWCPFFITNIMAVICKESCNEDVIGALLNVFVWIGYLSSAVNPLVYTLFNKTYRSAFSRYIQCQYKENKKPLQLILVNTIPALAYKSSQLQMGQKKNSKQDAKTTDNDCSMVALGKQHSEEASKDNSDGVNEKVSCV
Chain of 5-hydroxytryptamine receptor 7 (Homo sapiens) (P34969 whole entry): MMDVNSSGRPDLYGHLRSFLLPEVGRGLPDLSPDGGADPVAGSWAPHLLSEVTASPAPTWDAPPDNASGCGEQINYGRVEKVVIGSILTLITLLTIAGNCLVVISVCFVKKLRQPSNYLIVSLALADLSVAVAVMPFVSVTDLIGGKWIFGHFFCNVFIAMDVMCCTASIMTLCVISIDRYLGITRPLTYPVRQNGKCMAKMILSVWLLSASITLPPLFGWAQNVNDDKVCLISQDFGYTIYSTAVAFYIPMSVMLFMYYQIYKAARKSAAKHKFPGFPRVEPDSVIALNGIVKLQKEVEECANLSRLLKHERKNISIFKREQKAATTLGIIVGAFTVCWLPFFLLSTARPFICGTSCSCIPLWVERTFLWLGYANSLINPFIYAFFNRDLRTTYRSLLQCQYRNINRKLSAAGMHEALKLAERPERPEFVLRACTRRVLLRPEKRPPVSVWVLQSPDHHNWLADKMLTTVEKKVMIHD
Chain of 5-hydroxytryptamine receptor 1A (P08908 whole entry): as the sequence (P08908 whole entry) above

CN(C)[C@@H]1CCN(c2cc(-c3ccccc3)nc3ccnn23)C1 [(R)-ZINC-3573]
479 nM: Ki ([27]; read-out: pKi (converted))
5.73: pKi [45]
489 nM: Ki ([27]; read-out: Ki)
355 nM: Ki ([44]; read-out: pKi (converted))
1100 nM: Ki ([15]; read-out: pKi (converted))
3240 nM: Ki [16]
1700 nM: Ki ([9]; read-out: pKi (converted))
1740 nM: Ki ([9]; read-out: Ki)
2960 nM: Ki ([39]; read-out: Ki)
1940 nM: Ki [45]
1110 nM: Ki ([15]; read-out: Ki)
active: inhibition [6] 76.6% | inhibition [12] 54.9% | inhibition [17] 82.4% | inhibition [18] 64.8% | inhibition [28] 69.8% | inhibition [31] 58.9% | inhibition [32] 58.4% | inhibition [43] 52.5% | inhibition [46] 74.3%
inactive: inhibition [1] 40.5% | inhibition [2] 28.6% | inhibition [3] 28.8% | inhibition [4] -3.76% | inhibition [5] 11.7% | inhibition [7] 38.6% | inhibition [8] 32.6% | inhibition [10] 32.9% | inhibition [11] 20.1% | inhibition [13] 2.22% | inhibition [14] 12.3% | inhibition [19] 45.4% | inhibition [21] 12.7% | inhibition [22] 34.3% | inhibition [23] 13.8% | inhibition [24] 39.3% | inhibition [25] 5.27% | inhibition [26] 20.4% | inhibition [29] 31.9% | inhibition [30] 16.7% | inhibition [33] 7.26% | inhibition [34] 21.8% | inhibition [35] 7.75% | inhibition [36] 4.09% | inhibition [37] 28.1% | inhibition [38] 13.6% | inhibition [40] 10.2% | inhibition [41] 6.36% | inhibition [42] 11.3% | inhibition [47] 38.9% | inhibition [48] 16.3% | inhibition [49] 14.4% | inhibition [50] 37.3% | inhibition [51] 11.6% | inhibition [53] 21.3% | inhibition [54] 30.7%
748 nM: Ki ([20]; read-out: Ki)
1620 nM: Ki [52]
2880 nM: Ki ([39]; read-out: pKi (converted))
369 nM: Ki ([44]; read-out: Ki)

CN(C)[C@H]1CCN(c2cc(-c3ccccc3)nc3ccnn23)C1 [(S)-ZINC-3573]
2110 nM: Ki ([57]; read-out: pKi (converted))
> 100000 nM (not active): EC50 [55] | EC50 [56]
1090 nM: Ki ([20]; read-out: Ki)
1080 nM: Ki ([20]; read-out: pKi (converted))
2290 nM: Ki ([57]; read-out: Ki)
3550 nM: Ki ([39]; read-out: pKi (converted))
active: inhibition [6] 64.5% | inhibition [17] 65.1% | inhibition [31] 69.1% | inhibition [32] 63.2% | inhibition [40] 59.1%
inactive: inhibition [1] 16.4% | inhibition [2] 22% | inhibition [3] 34.4% | inhibition [4] 40.4% | inhibition [5] 29.4% | inhibition [7] 13.4% | inhibition [8] 8.3% | inhibition [10] 40.2% | inhibition [11] 26.6% | inhibition [12] 21.5% | inhibition [13] -3.16% | inhibition [14] 7.57% | inhibition [18] 19.3% | inhibition [19] 2.02% | inhibition [21] 18.9% | inhibition [22] 2.89% | inhibition [23] 5.42% | inhibition [24] 16.4% | inhibition [25] 42.8% | inhibition [26] 33.5% | inhibition [28] 2.85% | inhibition [29] 30% | inhibition [30] 33.3% | inhibition [34] 34.2% | inhibition [35] 12.4% | inhibition [36] 2.83% | inhibition [37] 39% | inhibition [38] 6.22% | inhibition [41] 3.36% | inhibition [42] 9.93% | inhibition [43] 4.88% | inhibition [46] -1.89% | inhibition [48] 23.5% | inhibition [49] 27.4% | inhibition [51] 2.83% | inhibition [53] 9.07% | inhibition [54] 4.16%
3630 nM: Ki ([39]; read-out: Ki)
973 nM: Ki ([27]; read-out: Ki)
2880 nM: Ki ([9]; read-out: pKi (converted))
2960 nM: Ki ([9]; read-out: Ki)
